# Counter-ions that a name gives are not always drawn.
# What was measured:
# [1] = molecular target: T1, human mitochondrial NAD(P)+-dependent malic enzyme (m-NAD(P)-ME, ME2) (Homo sapiens, UniProt P23368); assay: enzyme activation assay ([…] nm), purified enzyme; allosteric-site mutant controls; settings: read-out: ^3 ^, ^4m-NAD(P)-ME WT
# [2] = molecular target: T1, human mitochondrial NAD(P)+-dependent malic enzyme (m-NAD(P)-ME, ME2); assay: spectrophotometric NADH assay at […] nm; fumarate competition/rescue; allosteric-site mutant controls; assay type: biochemical
# T1 sequence (P23368 19-584): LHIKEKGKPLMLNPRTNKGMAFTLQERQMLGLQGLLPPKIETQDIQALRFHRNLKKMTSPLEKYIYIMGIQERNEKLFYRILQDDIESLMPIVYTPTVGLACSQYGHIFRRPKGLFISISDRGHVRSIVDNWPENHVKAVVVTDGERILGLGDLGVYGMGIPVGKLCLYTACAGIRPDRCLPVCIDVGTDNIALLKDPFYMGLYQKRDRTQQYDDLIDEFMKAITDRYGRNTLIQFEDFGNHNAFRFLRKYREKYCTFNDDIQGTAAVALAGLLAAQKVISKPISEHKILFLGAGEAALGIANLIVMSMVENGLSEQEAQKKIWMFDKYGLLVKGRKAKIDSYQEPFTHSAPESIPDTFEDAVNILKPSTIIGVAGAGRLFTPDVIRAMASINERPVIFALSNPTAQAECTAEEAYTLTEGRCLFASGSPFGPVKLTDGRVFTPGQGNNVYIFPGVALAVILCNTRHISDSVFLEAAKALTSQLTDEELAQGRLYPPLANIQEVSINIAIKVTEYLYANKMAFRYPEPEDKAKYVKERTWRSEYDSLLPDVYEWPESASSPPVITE
smiles,measurement,setting,value
C/C(=C\C(=O)O)C(=O)O [Mesaconate],fold induction at 20000 µM,[1],1.75 ± 0.16
CCOC(=O)/C=C/C(=O)O [Monoethyl fumarate],fold induction at 10000 µM,[1],1.83 ± 0.04
COC(=O)/C=C/C(=O)O [Monomethyl fumarate],fold induction at 5000 µM,[1],2.78 ± 0.08
CCOC(=O)/C=C(\O)C(=O)OCC [diethyl oxalacetate],IC50,[2],~2500 µM

# Reference: PMC4049574 (PLoS ONE, 2014)
